We go through 4 substances from publication PMC6316436, “Design of Linear and Cyclic Mutant Analogues of Dirucotide Peptide (MBP82–98) against Multiple Sclerosis: Conformational and Binding Studies to MHC Class II” (Brain Sciences, 2018).

Entries after “also recorded” stand apart in the source; their conditions may differ. Like-named read-outs stand apart in the source and are kept apart here. Ends that are not written are not given here.

For series [1], the system named is HLA-DR4. The series is described as follows: Competition binding of MBP82–98 analogues to HLA-DR4 (AMCA-labeled HA306–318 competitor). The arrangement: species or system human. Particulars: 37 °C; for binding to HLA-DR4, overall statement: competition with AMCA-labeled HA306–318, 48 h, pH 6.0.
The subject of series [2] is HLA-DR2. The series is described as follows: Competition binding of MBP82–98 analogues to HLA-DR2 (AMCA-labeled MBP83–99 competitor). The arrangement: species or system human. Particulars: 37 °C; for binding affinity to HLA-DR2 (competition), in words: triplicates.
Series [3] relates to patients with relapsing remitting MS and secondary progressive MS. Particulars: phase III, cited from earlier work. An excerpt: (§1) Dirucotide is licensed to BioMS Medical Corp and shared the development with Eli Lilly and Company. […] As a result, further planned/scheduled clinical trials were terminated. […] It is likely that ...
The subject of series [4] is CD4^+CD25^+Foxp3^+ regulatory T cells. Particulars: ref [18], cited from earlier work.
From the text: as §1

The test system of series [5] is patients with MS. Particulars: ref [16], cited from earlier work.
From the text: as §1

Series [6] deals with autoreactive T cells. Particulars: intravenous injections, preclinical and clinical studies; ref [15]; cited from earlier work. An excerpt: Dirucotide is licensed to BioMS Medical Corp and shared the development with Eli Lilly and Company. […] Thus, in the populat ...
In series [7] the test system is experimental autoimmune encephalomyelitis (EAE). Particulars: compared to linear PLP139–151 peptide; ref [30]; cited from earlier work. An excerpt: The cyclization of peptides is of great interest, since the partial stability of linear peptides restricts them as potential therapeutics. We have extensively studied cyclic peptides for their enhanced stability and their potential to be used as immunotherapeutics in MS due to their altered three-dimensional conformation. […] Similarly, cyclization of the agonist proteolipid protein (PLP139–151) epit ...

The mark [8] stands for this setting: phase II, HLA-DR2 and HLA-DR4 patients with MS.

For “DENPVVHFFA^91NIVTPRT [linear MBP82–98 (Ala^91), linear altered peptide ligand of dirucotide, K91 mutated to Ala]”, in series [1], the “binding to HLA-DR4, overall statement” value is listed as “considerable higher affinity than cyclic MBP82–98”. Also, the “binding affinity to HLA-DR2 (competition), in words” value in series [2] (10-fold and 20-fold excess, AMCA-labeled MBP83–99, 48 h, pH 6.0, HPSEC fluorescence, relative to linear agonist MBP82–98) is on record as “bound with much lower affinity”; in series [2] (50-fold excess, AMCA-labeled MBP83–99, 48 h, pH 6.0, HPSEC fluorescence), “comparable to linear agonist MBP82–98 peptide at 50-fold excess”.

Turning to “DENPVVHFFK^91NIVTPRT [dirucotide, 17-mer linear peptide MBP82–98]”, in series [3] (612 subjects, ref [17]), the benefit versus placebo result was “did not provide any benefit compared to placebo”; the “primary and secondary endpoints” value was “no enhanced primary and secondary endpoints achieved”. Further, the benefit versus placebo entry in series [3] (relapsing remitting MS and secondary progressive MS, ref [17],[18]) is “no added benefit was noted compared to the placebo group”. For the same substance, the “induction of CD4+CD25+Foxp3+ regulatory T cells” value in series [4] (following injection in patients with MS) was “induce CD4^+CD25^+Foxp3^+ regulatory T cells”. Further, the “number of CD4+CD25+Foxp3+ regulatory T cells” value in series [4] (six weeks and six months after treatment) is “increase in the number of CD4^+CD25^+Foxp3^+ regulatory T cells”. Also, the “T cell responses against MBP82–98 epitope” value in series [5] (injected in high concentrations in patients with MS) was “suppressed T cell responses against MBP82–98 epitope”. Moreover, in series [5] (setting [8]), the safety result is recorded as “safe” and the “time to disease progression” value is reported as “prolonged the median time to disease progression”. Moreover, in series [5] (phase II, HLA-DR2 and HLA-DR4 patients with MS, listed as Dirucotide), the “time to disease progression” value is recorded as “delayed disease progression”. The “suppression of autoreactive T cells” value in series [6] is reported as “suppress autoreactive T cells”.

For the substance “cyclic PLP139–151: cyclized agonist proteolipid protein (PLP139–151) epitope (CHCLGKWLGHPDK; also: cyclized; UniProt P60202 139-151, looked up, fragment)”, in series [7], the “disease burden and pathology” value is “low disease burden, and minimal inflammatory, demyelinating, and axonopathic pathology compared to the linear PLP139–151 peptide”.

Turning to “cycloDENPVVHFFK^91NIVTPRT (head to tail) [cyclic MBP82–98, head to tail cyclized dirucotide]”, in series [1] (10-fold, 20-fold, 50-fold excess over AMCA-labeled HA306–318 (1 μM), 48 h, 150 mM sodium phosphate pH 6.0, 15% acetonitrile, 0.1% Zwittergent-12, HPSEC fluorescence 350/450 nm, triplicates), the “binding affinity to HLA-DR4 (competition), in words” value was “considerably lower compared to its linear counterpart and linear APL MBP82–98 (Ala^91)”. Besides, in series [1], the “binding to HLA-DR4, overall statement” value is “lower affinity binding to the HLA-DR4 allele; also recorded: binds to HLA-DR2 and HLA-DR4 alleles with considerable affinity”. Further, the “binding affinity to HLA-DR2 (competition), in words” value in series [2] (10-fold, 20-fold and 50-fold excess over AMCA-labeled MBP83–99 (1 μM), 48 h, 150 mM sodium phosphate pH 6.0, 15% acetonitrile, 0.1% Zwittergent-12, HPSEC fluorescence 350/450 nm) is “reduced affinity compared to its linear counterpart at 10-fold, 20-fold and 50-fold excess, but still with comparable affinity”. In series [2] (overall, competition with AMCA-labeled MBP83–99, 48 h, pH 6.0), the “binding to HLA-DR2, overall statement” value is “strong binder with the HLA-DR2 allele; also recorded: binds to HLA-DR2 and HLA-DR4 alleles with considerable affinity; also recorded: higher affinity than MBP82–98 (A^91)”.
